The target in the experiment is T1, CXCR2 (Homo sapiens, UniProt P25025).
T1 construct: host or cells: HEK293T, transient
T1 sequence (P25025 1-360): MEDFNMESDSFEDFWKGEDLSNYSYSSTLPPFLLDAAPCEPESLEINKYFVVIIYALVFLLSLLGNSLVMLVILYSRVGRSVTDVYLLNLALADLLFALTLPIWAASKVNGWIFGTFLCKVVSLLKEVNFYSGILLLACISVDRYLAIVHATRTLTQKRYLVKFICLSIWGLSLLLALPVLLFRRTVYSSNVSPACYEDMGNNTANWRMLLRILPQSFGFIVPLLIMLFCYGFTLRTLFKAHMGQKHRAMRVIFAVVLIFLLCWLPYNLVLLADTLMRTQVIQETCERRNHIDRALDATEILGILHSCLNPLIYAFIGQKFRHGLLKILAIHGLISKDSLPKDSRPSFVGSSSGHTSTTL
Briefly: Membrane-based NanoBRET saturation binding assay, CXCR2_Nluc membranes. Particulars: compared with CCR1. As for the experimental part:
Emission spectra of Nluc -labeled CCR1 (CCR1_Nluc) protein: The emission spectra of CCR1_Nluc has already been reported by Toy et al.1 For a confirmation of the reported data with new CCR1_Nluc membrane batches, furimazine (Promega, Mannheim, Germany 1:2000) was added to the membrane preparations (2 µg protein/well). […]
NanoBRET binding assays: Membrane-based NanoBRET saturation assay: For the establishment of our NanoBRET binding assay, we referred to recently published protocols. […]
Then, 20 µL of the membrane preparations diluted in assay buffer (3 µg total protein/well) were added and the plates were incubated for 90 min at 37 °C. Subsequently, 5 µL of a furimazine solution (Promega, Mannheim, Germany, final assay dilution: 1:5,000) were added to each well (final assay volume: 35 µL) before measuring luminescence with a CLARIOstar microplate reader using 620/10 nm and 475/30 nm emission filters after 5 min of incubation in the dark. Bioluminescence resonance energy transfer (BRET) was determined as the ratio of acceptor fluorescence and donor luminescence. […] Specific binding signals were calculated as a difference of total and non-specific binding. If required, netBRET values were calculated as the difference between total BRET values and the values obtained in the absence of a fluorescent ligand. […]
For orientation: In BRET a luciferase serves as donor, and the signal depends on an acceptor being close.

On to `CN(C)c1ccc2c(-c3cc(C(=O)NCCOCCOCc4cn(CCCC(=O)C5=C(O)C(=O)N(c6ccc(Br)cc6F)C5C5CCCCC5)nn4)ccc3C(=O)[O-])c3ccc(=[N+](C)C)cc-3oc2c1` (stereo not shown) [compound 12], for which the “Binding signal for CXCR2” value is recorded as “much weaker”.
